Experimental data: patent EP2326328B1, “USE OF DIHYDRALAZINE FOR THE TREATMENT OF DISEASES RELATED TO ELEVATED SEMICARBAZIDE SENSITIVE AMINE-OXIDASE (SSAO) ACTIVITY” (Semmelweis Egyetem, priority 2008, dated 2010)
“And” between values parts separate entries of the source, which are not always exact repeats. Equal entries are not always repeated. Where two headings read alike, the source gives them in different places.

What was measured:
[1] = blood pressure and pulse of treated type 2 diabetic patients; assay type: in vivo, human; conditions: oral 14.5 mg dihydralazine sulphate twice daily; for RRsyst: blood pressure (systolic): before treatment 153
Experimental: After giving their informed consent, patients participating in the study were treated for 56 days taking ½ tablet twice daily of a pharmaceutical composition containing 28.9 mg dihydralazine sulphate (i.e. the ½ tablet contained 14.5 mg dihydralazine sulphate).
To measure the efficacy and monitor the safety of the treatment, the following examinations were carried out before starting the treatment and at the 1., 7., 14., 28. and 56. day of the treatment: • 1. ocular examinations: visual acuity (ETDRS chart), slit-lamp examination, measurement of intraocular pressure with applanation tonometry, fundus biomicroscopy with pupil dilation, digital fundus photography. The grade of macular edema was determined via measuring retinal thickness with optical coherency tomography (OCT). • 2. internal medicine examinations: anamnesis, physical examinations, blood pressure, pulse, urine examination. • 3. laboratory examinations: blood glucose, HbA1c, liver function, kidney function, microalbuminuria, metabolic panel of the blood , lipids, CRP.
In the table the following abbreviations were used: • BMI: body mass index - weight (kg) / height (m^2) • RRsyst: blood pressure (systolic) (Hgmm) • RRdiast: blood pressure (diastolic) (Hgmm) • OCT CST (central subfield thickness): the average thickness of the central 1-mm area of the macula • OCT CPT (center point thickness): the thickness of the center point of the retina; normally that is the thinnest point of the macula Table 4.

[2] = blood pressure of treated rats, determined in an invasive way; assay type: in vivo; conditions: sc 0.1 or 0.01 M solution (0.1 ml/100 g) once daily for 1-5 days, compared to the control group
Experimental: The blood pressure of the animals was determined in an invasive way. […]

[3] = target: T1, SSAO (Rattus norvegicus, UniProt O08590); experiment: serum SSAO activity in vivo in rats after sc treatment; conditions: for Specific activity (pmol/mg/h) Mean / Inhibition (%) / Specific activity / inhibition at 10 µmol/kg / inhibition at 100 µmol/kg: rat serum SSAO; for Specific activity (pmol/mg/h) Mean / Specific activity: control mean 3.373; for inhibition at 10 µmol/kg / inhibition at 100 µmol/kg: rat, sc
T1 construct: from tissue; host or cells: rat serum (blood supernatant) of treated animals
T1 sequence (O08590 28-763 limits assumed): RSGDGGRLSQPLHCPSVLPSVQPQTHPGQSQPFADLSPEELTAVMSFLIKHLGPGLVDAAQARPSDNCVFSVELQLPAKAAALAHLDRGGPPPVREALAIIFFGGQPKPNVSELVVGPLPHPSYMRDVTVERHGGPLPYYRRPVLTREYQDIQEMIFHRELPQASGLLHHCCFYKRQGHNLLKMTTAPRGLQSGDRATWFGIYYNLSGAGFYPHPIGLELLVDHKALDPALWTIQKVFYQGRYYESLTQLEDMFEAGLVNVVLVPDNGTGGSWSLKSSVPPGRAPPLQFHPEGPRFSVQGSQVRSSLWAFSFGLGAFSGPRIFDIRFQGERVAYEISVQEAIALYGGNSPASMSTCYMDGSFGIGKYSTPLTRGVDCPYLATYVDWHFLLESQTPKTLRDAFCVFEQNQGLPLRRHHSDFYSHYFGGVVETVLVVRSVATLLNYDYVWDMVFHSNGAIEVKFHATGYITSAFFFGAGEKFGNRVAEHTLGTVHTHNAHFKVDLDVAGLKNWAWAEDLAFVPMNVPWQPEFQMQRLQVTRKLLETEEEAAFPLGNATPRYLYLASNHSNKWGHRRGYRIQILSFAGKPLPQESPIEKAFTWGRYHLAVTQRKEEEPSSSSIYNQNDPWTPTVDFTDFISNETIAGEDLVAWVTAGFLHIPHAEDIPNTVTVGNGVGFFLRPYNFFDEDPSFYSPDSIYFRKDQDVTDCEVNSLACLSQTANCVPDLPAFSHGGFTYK
Experimental: Rats were treated sc with 0.1 or 0.01 M dihydralazine solution (0.1 ml/100 g) once daily for 1-5 days. On the appropriate day, 2 hours after the treatment the rats were decapitated and their blood was collected without anticoagulant in plastic centrifuge tubes. Blood samples were centrifuged at a low frequency (800 rpm/min) and the supernatant was used for the determination of SSAO activity applying ^14C-benzylamine substrate.
SSAO inhibition expressed in pmol/mg protein/hour units and in % values (mean ± S.D.) in the two treated groups is shown in table 2 and 3.

[4] = sc 10 µmol/kg (1.9 mg/kg) once daily, 24 h, individual animals
[5] = sc 10 µmol/kg (1.9 mg/kg) once daily, 48 h, individual animals
[6] = sc 10 µmol/kg (1.9 mg/kg) once daily, 72 h, individual animals
[7] = sc 10 µmol/kg (1.9 mg/kg) once daily, 96 h, individual animals
[8] = sc 10 µmol/kg (1.9 mg/kg) once daily, 120 h, individual animals
[9] = sc 100 µmol/kg (19 mg/kg) once daily, 24 h, individual animals
[10] = sc 100 µmol/kg (19 mg/kg) once daily, 48 h, individual animals
[11] = sc 100 µmol/kg (19 mg/kg) once daily, 72 h, individual animals
[12] = sc 100 µmol/kg (19 mg/kg) once daily, 96 h, individual animals
[13] = sc 100 µmol/kg (19 mg/kg) once daily, 120 h, individual animals

NNc1nnc(NN)c2ccccc12 [dihydralazine]
pulse ([1]; 1. patient, 14. day, before treatment 60): 69 beats/min | RRdiast: blood pressure (diastolic) ([1]; 1. patient, 14. day, before treatment 63): 70 Hgmm | RRsyst: blood pressure (systolic) ([1]; 1. patient, 14. day): 154 Hgmm | pulse ([1]; 1. patient, 28. day, before treatment 60): 69 beats/min | RRdiast: blood pressure (diastolic) ([1]; 1. patient, 28. day, before treatment 63): 68 Hgmm | RRsyst: blood pressure (systolic) ([1]; 1. patient, 28. day): 152 Hgmm | pulse ([1]; 1. patient, 56. day, before treatment 60): 60 beats/min | RRdiast: blood pressure (diastolic) ([1]; 1. patient, 56. day, before treatment 63): 67 Hgmm | RRsyst: blood pressure (systolic) ([1]; 1. patient, 56. day): 161 Hgmm | RRdiast: blood pressure (diastolic) ([1]; 2. patient, 14. day, before treatment 76): 65 Hgmm | pulse ([1]; 2. patient, 14. day, before treatment 79): 89 beats/min | RRsyst: blood pressure (systolic) ([1]; 2. patient, 14. day): 150 Hgmm | RRdiast: blood pressure (diastolic) ([1]; 2. patient, 28. day, before treatment 76): 74 Hgmm | pulse ([1]; 2. patient, 28. day, before treatment 79): 93 beats/min | RRsyst: blood pressure (systolic) ([1]; 2. patient, 28. day): 158 Hgmm | RRdiast: blood pressure (diastolic) ([1]; 2. patient, 56. day, before treatment 76): 64 Hgmm | pulse ([1]; 2. patient, 56. day, before treatment 79): 77 beats/min | RRsyst: blood pressure (systolic) ([1]; 2. patient, 56. day): 126 Hgmm | blood pressure ([1]; type 2 diabetic patients): did not cause significant change of blood pressure | blood pressure of the animals [2]: did not cause lowering of the blood pressure | SSAO inhibition ([3]; animal experiments, low dose without appreciable blood pressure lowering effect): significant SSAO inhibition | Specific activity (pmol/mg/h) Mean ([3]; sc 10 µmol/kg (1.9 mg/kg) once daily, 24 h, group mean): 1.580 pmol/mg/h | Inhibition (%) [3, 4]: 37% and 57% | Specific activity [3, 4]: 2.11 pmol/mg/h and 1.19 pmol/mg/h and 1.44 pmol/mg/h | Specific activity (pmol/mg/h) Mean ([3]; sc 10 µmol/kg (1.9 mg/kg) once daily, 48 h, group mean): 1.595 pmol/mg/h | Inhibition (%) [3, 5]: 52% and 55% | Specific activity [3, 5]: 1.66 pmol/mg/h and 1.61 pmol/mg/h and 1.52 pmol/mg/h | Specific activity (pmol/mg/h) Mean ([3]; sc 10 µmol/kg (1.9 mg/kg) once daily, 72 h, group mean): 1.244 pmol/mg/h | Inhibition (%) [3, 6]: 69% | Specific activity [3, 6]: 1.25 pmol/mg/h and 1.06 pmol/mg/h and 1.43 pmol/mg/h | Specific activity (pmol/mg/h) Mean ([3]; sc 10 µmol/kg (1.9 mg/kg) once daily, 96 h, group mean): 1.344 pmol/mg/h | Inhibition (%) [3, 7]: 71% and 42% | Specific activity [3, 7]: 0.97 pmol/mg/h and 1.94 pmol/mg/h and 1.12 pmol/mg/h | Specific activity (pmol/mg/h) Mean ([3]; sc 10 µmol/kg (1.9 mg/kg) once daily, 120 h, group mean): 1.425 pmol/mg/h | Inhibition (%) [3, 8]: 77% and 14% and 82% | Specific activity [3, 8]: 0.78 pmol/mg/h and 2.90 pmol/mg/h and 0.59 pmol/mg/h | Specific activity (pmol/mg/h) Mean ([3]; sc 100 µmol/kg (19 mg/kg) once daily, 24 h, group mean): 1.094 pmol/mg/h | Inhibition (%) [3, 9]: 69% | Specific activity [3, 9]: 1.13 pmol/mg/h and 1.05 pmol/mg/h and 1.11 pmol/mg/h | Specific activity (pmol/mg/h) Mean ([3]; sc 100 µmol/kg (19 mg/kg) once daily, 48 h, group mean): 1.481 pmol/mg/h | Inhibition (%) [3, 10]: 47% and 61% | Specific activity [3, 10]: 1.33 pmol/mg/h and 1.80 pmol/mg/h and 1.31 pmol/mg/h | Specific activity (pmol/mg/h) Mean ([3]; sc 100 µmol/kg (19 mg/kg) once daily, 72 h, group mean): 1.177 pmol/mg/h | Inhibition (%) [3, 11]: 66% | Specific activity [3, 11]: 1.11 pmol/mg/h and 1.26 pmol/mg/h and 1.15 pmol/mg/h | Specific activity (pmol/mg/h) Mean ([3]; sc 100 µmol/kg (19 mg/kg) once daily, 96 h, group mean): 0.859 pmol/mg/h | Inhibition (%) [3, 12]: 73% | Specific activity [3, 12]: 0.55 pmol/mg/h and 1.12 pmol/mg/h and 0.91 pmol/mg/h | Specific activity (pmol/mg/h) Mean ([3]; sc 100 µmol/kg (19 mg/kg) once daily, 120 h, group mean): 0.730 pmol/mg/h | Inhibition (%) [3, 13]: 62% and 90% and 83% | Specific activity [3, 13]: 1.29 pmol/mg/h and 0.34 pmol/mg/h and 0.56 pmol/mg/h | inhibition at 10 µmol/kg ([3]; sc 10 µmol/kg (1.9 mg/kg) once daily, 24 h, group mean, read-out: Inhibition (%) Mean): 53% | inhibition at 10 µmol/kg ([3]; sc 10 µmol/kg (1.9 mg/kg) once daily, 48 h, group mean, read-out: Inhibition (%) Mean): 53% | inhibition at 10 µmol/kg ([3]; sc 10 µmol/kg (1.9 mg/kg) once daily, 48 h, individual animals, read-out: Inhibition (%)): 51% | inhibition at 10 µmol/kg ([3]; sc 10 µmol/kg (1.9 mg/kg) once daily, 72 h, group mean, read-out: Inhibition (%) Mean): 63% | inhibition at 10 µmol/kg ([3]; sc 10 µmol/kg (1.9 mg/kg) once daily, 72 h, individual animals, read-out: Inhibition (%)): 63% | inhibition at 10 µmol/kg ([3]; sc 10 µmol/kg (1.9 mg/kg) once daily, 96 h, group mean, read-out: Inhibition (%) Mean): 60% | inhibition at 10 µmol/kg ([3]; sc 10 µmol/kg (1.9 mg/kg) once daily, 120 h, group mean, read-out: Inhibition (%) Mean): 58% | inhibition at 100 µmol/kg ([3]; sc 100 µmol/kg (19 mg/kg) once daily, 24 h, group mean, read-out: Inhibition (%) Mean): 68% | inhibition at 100 µmol/kg ([3]; sc 100 µmol/kg (19 mg/kg) once daily, 24 h, individual animals, read-out: Inhibition (%)): 67% | inhibition at 100 µmol/kg ([3]; sc 100 µmol/kg (19 mg/kg) once daily, 48 h, group mean, read-out: Inhibition (%) Mean): 56% | inhibition at 100 µmol/kg ([3]; sc 100 µmol/kg (19 mg/kg) once daily, 48 h, individual animals, read-out: Inhibition (%)): 60% | inhibition at 100 µmol/kg ([3]; sc 100 µmol/kg (19 mg/kg) once daily, 72 h, group mean, read-out: Inhibition (%) Mean): 65% | inhibition at 100 µmol/kg ([3]; sc 100 µmol/kg (19 mg/kg) once daily, 72 h, individual animals, read-out: Inhibition (%)): 67% | inhibition at 100 µmol/kg ([3]; sc 100 µmol/kg (19 mg/kg) once daily, 96 h, group mean, read-out: Inhibition (%) Mean): 75% | inhibition at 100 µmol/kg ([3]; sc 100 µmol/kg (19 mg/kg) once daily, 96 h, individual animals, read-out: Inhibition (%)): 84% | inhibition at 100 µmol/kg ([3]; sc 100 µmol/kg (19 mg/kg) once daily, 120 h, group mean, read-out: Inhibition (%) Mean): 78%
